Key:
[1] = molecular target: PIK3CA (human) (UniProt P42336); experiment: Assessment of PIK3CA Kinase Activity Using Homogenous Solution Phase Assay
[2] = molecular target: PIK3CA (human) (UniProt P42336); experiment: Assessment of PIK3CA Kinase Activity Using One Step Solid Phase Assay

Chain of PIK3CA (human) (P42336 whole entry, looked up): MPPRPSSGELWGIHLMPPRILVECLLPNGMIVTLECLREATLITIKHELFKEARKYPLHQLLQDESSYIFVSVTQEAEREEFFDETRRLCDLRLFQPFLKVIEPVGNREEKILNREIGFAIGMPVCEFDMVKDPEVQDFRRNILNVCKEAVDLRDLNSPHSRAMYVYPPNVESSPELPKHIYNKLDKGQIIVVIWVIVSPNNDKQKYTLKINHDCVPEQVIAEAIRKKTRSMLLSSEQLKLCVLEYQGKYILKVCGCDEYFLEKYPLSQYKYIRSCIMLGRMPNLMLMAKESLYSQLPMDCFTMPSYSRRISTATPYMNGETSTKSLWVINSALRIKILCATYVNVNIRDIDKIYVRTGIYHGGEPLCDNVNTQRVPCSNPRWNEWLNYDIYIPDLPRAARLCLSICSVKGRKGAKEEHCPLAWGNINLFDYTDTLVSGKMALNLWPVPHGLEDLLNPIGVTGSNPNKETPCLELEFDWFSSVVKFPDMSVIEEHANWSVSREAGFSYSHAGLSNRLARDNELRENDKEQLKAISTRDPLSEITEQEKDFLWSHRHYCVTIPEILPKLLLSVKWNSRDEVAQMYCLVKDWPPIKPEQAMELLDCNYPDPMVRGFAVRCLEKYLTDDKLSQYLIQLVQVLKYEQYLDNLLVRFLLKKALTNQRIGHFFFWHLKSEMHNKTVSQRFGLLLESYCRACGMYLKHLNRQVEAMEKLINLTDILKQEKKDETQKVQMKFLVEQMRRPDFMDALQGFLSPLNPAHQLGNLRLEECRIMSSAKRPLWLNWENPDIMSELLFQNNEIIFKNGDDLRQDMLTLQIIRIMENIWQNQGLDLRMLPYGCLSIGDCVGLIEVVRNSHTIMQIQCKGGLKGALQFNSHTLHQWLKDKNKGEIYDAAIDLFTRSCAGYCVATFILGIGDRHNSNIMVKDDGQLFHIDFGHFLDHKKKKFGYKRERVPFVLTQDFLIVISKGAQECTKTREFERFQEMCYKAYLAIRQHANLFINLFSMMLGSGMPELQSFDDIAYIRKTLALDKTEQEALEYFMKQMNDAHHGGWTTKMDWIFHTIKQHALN

Oc1cccc(-c2cc(Nc3ccc(O)nc3)nc(N3CCOCC3)n2)c1
IC50 [1]: < 20 µM
IC50 [2]: < 20 µM

c1cc(OCCN2CCCCC2)cc(-c2cc(Nc3ccc4[nH]ncc4c3)nc(N3CCOCC3)n2)c1
IC50 [1]: < 20 µM
IC50 [2]: < 20 µM

Reference: the Kinase Knowledgebase extract (Sharma et al. 2016)
